This note sets out measurements from US7786141B2 (Vertex Pharmaceuticals Incorporated, priority 2004, dated 2010).

For experiment [1], the target named is T1, M1 muscarinic receptor (Homo sapiens, UniProt P11229).
T1 construct: expressed in transfected cells; host or cells: CHO (M1-CHO)
T1 sequence (P11229 1-460): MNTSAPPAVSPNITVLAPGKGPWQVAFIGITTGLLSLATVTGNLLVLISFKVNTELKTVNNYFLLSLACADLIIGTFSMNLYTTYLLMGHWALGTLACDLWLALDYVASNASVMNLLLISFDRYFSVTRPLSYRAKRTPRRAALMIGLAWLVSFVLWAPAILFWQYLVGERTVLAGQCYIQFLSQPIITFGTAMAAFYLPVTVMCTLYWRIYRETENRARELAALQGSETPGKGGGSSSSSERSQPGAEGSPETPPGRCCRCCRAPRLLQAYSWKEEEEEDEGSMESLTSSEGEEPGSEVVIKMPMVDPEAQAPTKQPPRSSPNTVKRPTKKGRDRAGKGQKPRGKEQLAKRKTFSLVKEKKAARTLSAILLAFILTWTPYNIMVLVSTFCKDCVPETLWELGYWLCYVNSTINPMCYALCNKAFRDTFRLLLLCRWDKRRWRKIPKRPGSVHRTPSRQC
In words: Functional mobilization of intracellular calcium (FLIPR) in M1-CHO cells. The format is cell-based. The conditions noted are these: M1 receptor, calcium mobilization; for Emax: read-out: M1 Efficacy. As to the method:
(§1) Functional Mobilization of Intracellular Calcium to Determine Muscarinic Receptor Activity:
(§2) CHO cells expressing muscarinic receptors (M1 to M5) are grown as monolayers in tissue culture flasks at 37° C. in a humidified atmosphere containing 5% CO2 and passaged every 3-5 days. The growth media is Dulbecco's modified eagles medium (DMEM, Gibco Cat# 12430-054), containing 25 mM Hepes and supplemented with Fetal Bovine Serum (Hyclone, cat# SH30071.03), 0.1 mM of MEM non-essential amino acids (GIBCO, Cat# 11140-050), 1 mM MEM Sodium Pyruvate (GIBCO Cat# 11360-070) and 100 units/ml of Penicillin G and 100 μg/ml of Streptomycin (GIBCO Cat# 15140-122). The recombinant muscarinic receptor cell lines are grown under antibiotic pressure with media containing 25 μg/ml zeocin and 500 μg/ml G418 (M1-CHO), 4 μg/ml puromycin, 50 μg/ml zeocin and 2.5 μg/ml blasticidin (M2 and M4-CHO) or 50 μg/ml zeocin and 4 μg/ml puromycin (M3 and M5-CHO).
(§3) Cells are harvested at 80-90% confluence using Versene (GIBCO Cat# 15040-066), collected by centrifugation and seeded 18-24 hrs prior to running the calcium assay at a density of 5,000 cells/well in back-walled, clear-bottomed 384-well plates (BD Biocoat, poly-D-lysine, Cat#356663). The day of the experiment, the cells are washed with a plate washer (Bioteck Instruments, ELX 405) using bath 1 buffer (140-mM NaCl, 4.5-mM KCl, 2-mM CaCl2, 1-mM MgCl2, 10-mM Hepes-Na, 10-mM Glucose, pH 7.4, with NaOH) containing 1 mM Probenecid. Next, the calcium dye Fluo-3 (25 μl/well of Fluo-3 AM at 4 μM, Molecular Probes F-1241, in Bath 1 buffer containing 1 mM Probenecid) is added to the 25 μl of Bath 1 remaining in each well after the plate wash and the dye is loaded at 37° C. in the tissue culture incubator for 60-90 min. The fluorescent dye is removed using the plate washer with Bath 1 containing 1 mM Probenecid, leaving 25 μl/well of this solution after the wash. Alternatively, cells can be loaded with the calcium indicator from Molecular Devices (Calcium 3 Assay Reagents, Cat # R7181) adding 5 μl of a 5× solution dye in Bath 1 containing 1 mM Probenecid (10 ml per dye flask cat# R7182 to generate a solution 20×) to 20 μl of the same buffer. After loading for 60 min, the experiment can be run without having to remove the dye.
(§4) Compounds are prepared at a 2× fold concentration in a 96-well plate (round bottom, Costar Corning cat# 3656), by reconstituting the pre-spotted compounds in bath 1 containing 1 mM probenecid. The final concentration DMSO is 0.5%, and the amount of DMSO is normalized across the assay plate. To determine an agonist action of the compounds on muscarinic receptors, the reconstituted compounds are added (25 μl compound/well) to the cell assay plate (containing 25 μl/well) using the multi-channel robotic system of the FLIPR 3 Instrument (Molecular Devices, Sunnyvale, Calif.). To determine a functional inhibitory action of the compounds on muscarinic receptors, the reconstituted compounds are added (25 μl compound/well) to the assay plate and pre-incubated for 15 min prior to adding 25 μl of Carbachol at 3× the EC80 for each muscarinic subtype. Alternatively, the compounds can be co-applied simultaneously with the agonist. In both assay modes, the fluorescence is recorded for 60 sec (excitation wavelength is […] and emission wavelength 540 nm) using the FLIPR 3 instrument.
(§5) The potency, efficacy and selectivity of the muscarinic compounds were evaluated by screening the compound activity across the whole family (M1 to M5 cells). Compounds were also screened for activity on other proteins such as other GPCRs and ion channels to determine selectivity on M4 receptors.
Background: Calcium flux is commonly read through the fluorescence of an indicator in the cells.

Experiment [2] addresses T2, M4 muscarinic receptor (Homo sapiens, UniProt P08173).
T2 construct: expressed in transfected cells; host or cells: CHO (M4-CHO)
T2 sequence (P08173 1-479): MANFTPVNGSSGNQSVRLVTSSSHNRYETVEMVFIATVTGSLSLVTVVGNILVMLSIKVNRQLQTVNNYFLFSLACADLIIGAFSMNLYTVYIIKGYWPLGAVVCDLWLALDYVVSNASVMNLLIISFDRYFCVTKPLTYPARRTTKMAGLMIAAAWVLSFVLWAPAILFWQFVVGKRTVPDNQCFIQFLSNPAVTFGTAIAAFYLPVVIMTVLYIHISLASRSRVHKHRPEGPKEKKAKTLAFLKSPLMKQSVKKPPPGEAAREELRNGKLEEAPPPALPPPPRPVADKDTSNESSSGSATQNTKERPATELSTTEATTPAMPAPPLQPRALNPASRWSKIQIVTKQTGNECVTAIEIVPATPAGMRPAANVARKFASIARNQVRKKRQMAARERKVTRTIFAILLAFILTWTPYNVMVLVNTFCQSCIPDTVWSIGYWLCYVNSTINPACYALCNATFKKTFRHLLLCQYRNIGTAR
In words: Functional mobilization of intracellular calcium (FLIPR) in M4-CHO cells. Type of experiment: cell-based. As to conditions: M4 receptor, calcium mobilization; for Emax: read-out: M4 Efficacy. The procedure: as §1, §2, §3, §4, §5

SMILES strings stand for the structures.

With `CC(C)OC(=O)N1CCC(N2CCC3(CC2)CN(C(=O)N(C)C)c2ccc(F)cc23)CC1` [compound 54], in experiment [1], the “M1 Activity” value is “xxx (activity was measured to be less than 0.1 μM)” and the Emax is > 85%. Besides, in experiment [2], the “M4 Activity” value was “xx (activity was measured to be between 0.1 μM and 1.0 μM)”; the Emax fell in the range of 65 to 85%.

Regarding `CC(C)C(=O)N[C@H]1CC2(CCN(C[C@H]3C[C@H]4CC[C@H]3C4)CC2)c2ccccc21` [compound 55], in experiment [1], the “M1 Activity” value was “xxx (activity was measured to be less than 0.1 μM)” and the Emax is > 85%. For the same compound, in experiment [2], the “M4 Activity” value is reported as “xxx (activity was measured to be less than 0.1 μM)” and the Emax is 65 to 85%.

On to `CCOC(=O)N1C2CCC1CC(N1CCC3(CC1)CC(=O)Nc1ccccc13)C2` (stereo not shown) [compound 56], for which, in experiment [1], the “M1 Activity” value is listed as “xxx (activity was measured to be less than 0.1 μM)” and the Emax lay in the range of 65 to 85%. In experiment [2], the “M4 Activity” value is “xxx (activity was measured to be less than 0.1 μM)” and the Emax lay within 65 to 85%.

For the compound `O=C(C1CC1)N1CC2(CCN(C3CC4CCC(C3)N4C(=O)O[C@H]3CCOC3)CC2)c2cc(F)ccc21` (stereo partly shown) [compound 57], in experiment [1], the “M1 Activity” value is “xxx (activity was measured to be less than 0.1 μM)” and the Emax is 65 to 85%. Moreover, in experiment [2], the “M4 Activity” value is listed as “xxx (activity was measured to be less than 0.1 μM)” and the Emax lay within 65 to 85%.

Regarding `CCOC(=O)N1CCC(N2CCC3(CC2)CN(C(C)=O)c2ccc(-c4ccc(C)cc4)cc23)CC1` [compound 58], in experiment [1], the “M1 Activity” value is given as “xxx (activity was measured to be less than 0.1 μM)” and the Emax fell in the range of 65 to 85%. Moreover, in experiment [2], the “M4 Activity” value was “xx (activity was measured to be between 0.1 μM and 1.0 μM)”; the Emax was in the range of 65 to 85%.

Regarding `CCOC(=O)N1C2CCC1CC(N1CCC3(CC1)CN(C(=O)c1snnc1C)c1ccc(F)cc13)C2` (stereo not shown) [compound 59], in experiment [1], the “M1 Activity” value is on record as “xxx (activity was measured to be less than 0.1 μM)” and the Emax was < 65%. For the same compound, in experiment [2], the “M4 Activity” value is “xx (activity was measured to be between 0.1 μM and 1.0 μM)”; the Emax was in the range of 65 to 85%.

On to `CCOC(=O)N1CCC(CN2CCC3(CC2)CN(C(C)=O)c2ccc(F)cc23)CC1` [compound 60], for which, in experiment [1], the “M1 Activity” value is “xx (activity was measured to be between 0.1 μM and 1.0 μM)”; the Emax was 65 to 85%. Moreover, in experiment [2], the “M4 Activity” value was “x (activity was measured to be greater than 1.0 μM)” and the Emax was in the range of 65 to 85%.

In the case of `CCOC(=O)N1CCC(N2CCC3(CC2)C[C@H](NC(C)=O)c2ccccc23)CC1` [compound 61], in experiment [1], the “M1 Activity” value is given as “xxx (activity was measured to be less than 0.1 μM)” and the Emax fell in the range of 65 to 85%. For the same compound, in experiment [2], the “M4 Activity” value is “xx (activity was measured to be between 0.1 μM and 1.0 μM)”; the Emax fell in the range of 65 to 85%.

As for `C#CCCOC(=O)N1CCC(N2CCC3(CC2)CN(C(C)=O)c2ccc(F)cc23)CC1` [compound 62], in experiment [1], the “M1 Activity” value is given as “xxx (activity was measured to be less than 0.1 μM)” and the Emax is < 65%. For the same compound, in experiment [2], the “M4 Activity” value was “xx (activity was measured to be between 0.1 μM and 1.0 μM)”; the Emax is 65 to 85%.

In the case of `CCOC(=O)N1CCC(N2CCC3(CC2)CN(C(=O)OCC(C)(C)C)c2ccc(F)cc23)CC1` [compound 63], in experiment [1], the “M1 Activity” value is on record as “xxx (activity was measured to be less than 0.1 μM)” and the Emax is < 65%. For the same compound, in experiment [2], the “M4 Activity” value is “x (activity was measured to be greater than 1.0 μM)” and the Emax was < 65%.

On to `Clc1ccc2c(c1)C1(CCO2)CCN(C[C@H]2C[C@H]3C=C[C@H]2C3)CC1` [compound 64], for which, in experiment [1], the “M1 Activity” value is reported as “xxx (activity was measured to be less than 0.1 μM)” and the Emax is < 65%. Moreover, in experiment [2], the “M4 Activity” value is “xx (activity was measured to be between 0.1 μM and 1.0 μM)”; the Emax is < 65%.

For the compound `COCCOC(=O)N1CCCC(N2CCC3(CC2)CN(C(C)=O)c2ccc(F)cc23)CC1` (stereo not shown) [compound 65], in experiment [1], the “M1 Activity” value is “xx (activity was measured to be between 0.1 μM and 1.0 μM)”; the Emax was 65 to 85%. Also, in experiment [2], the “M4 Activity” value is “x (activity was measured to be greater than 1.0 μM)” and the Emax is < 65%.

As for `CCOC(=O)N1CCC(N2CCC3(CC2)CN(C(=O)c2ccc(OC(F)(F)F)cc2)c2ccc(F)cc23)CC1` [compound 66], in experiment [1], the “M1 Activity” value is recorded as “xxx (activity was measured to be less than 0.1 μM)” and the Emax is > 85%. In experiment [2], the “M4 Activity” value is on record as “xxx (activity was measured to be less than 0.1 μM)” and the Emax was > 85%.

Regarding `CC(=O)N1CC2(CCN(C3CC4CCC(C3)N4C(=O)O[C@@H]3CCOC3)CC2)c2cc(F)ccc21` (stereo partly shown) [compound 67], in experiment [1], the “M1 Activity” value is “xxx (activity was measured to be less than 0.1 μM)” and the Emax is < 65%. Moreover, in experiment [2], the “M4 Activity” value is “xx (activity was measured to be between 0.1 μM and 1.0 μM)”; the Emax was < 65%.

In the case of `O=C(OC1CCC1)N1C2CCC1CC(N1CCC3(CCc4ccccc43)CC1)C2` (stereo not shown) [compound 68], in experiment [1], the “M1 Activity” value is “xx (activity was measured to be between 0.1 μM and 1.0 μM)”; the Emax is < 65%. Besides, in experiment [2], the “M4 Activity” value is recorded as “x (activity was measured to be greater than 1.0 μM)” and the Emax was < 65%.

With `O=C(C1CCC1)N1CC2(CCN(C3CC4CCC(C3)N4C(=O)O[C@@H]3CCOC3)CC2)c2cc(F)ccc21` (stereo partly shown) [compound 69], in experiment [1], the “M1 Activity” value was “xx (activity was measured to be between 0.1 μM and 1.0 μM)”; the Emax was < 65%. Besides, in experiment [2], the “M4 Activity” value was “xx (activity was measured to be between 0.1 μM and 1.0 μM)”; the Emax is < 65%.
